# Target: cAMP and cAMP-inhibited cGMP 3',5'-cyclic phosphodiesterase 10A (Homo sapiens, UniProt Q9Y233)
# Assay: Inhibition Assay: PDE10A2 was amplified from human fetal brain cDNA (Clontech, Mountain View, Calif.) using a forward primer corresponding to nucleotides 56-77 of human PDE10A2 (Accession No. AF127480, Genbank Identifier 4894716), containing a Kozak consensus sequence, and a reverse primer corresponding to nucleotides 2406-2413 of human PDE10A2 (Accession No. AF127480, Genbank Identifier 4894716). Amplification with Easy-A polymerase (Stratagene, La Jolla, Calif.) was 95° C. for 2 minutes followed by thirty three cycles of 95° C. for 40 seconds, 55° C. for 30 seconds, and 72° C. for 2 minutes 48 seconds. Final extension was 72° C. for 7 minutes. The PCR product was TA cloned into pcDNA3.2-TOPO (Invitrogen, Carlsbad, Calif.) according to standard protocol. AD293 cells with 70-80% confluency were transiently transfected with human PDE10A2/pcDNA3.2-TOPO using Lipofectamine 2000 according to manufacturer specifications (Invitrogen, Carlsbad, Calif.). Cells were harvested 48 hours post-transfection.
# Type: cell-based
# Sequence of cAMP and cAMP-inhibited cGMP 3',5'-cyclic phosphodiesterase 10A (Q9Y233 whole entry): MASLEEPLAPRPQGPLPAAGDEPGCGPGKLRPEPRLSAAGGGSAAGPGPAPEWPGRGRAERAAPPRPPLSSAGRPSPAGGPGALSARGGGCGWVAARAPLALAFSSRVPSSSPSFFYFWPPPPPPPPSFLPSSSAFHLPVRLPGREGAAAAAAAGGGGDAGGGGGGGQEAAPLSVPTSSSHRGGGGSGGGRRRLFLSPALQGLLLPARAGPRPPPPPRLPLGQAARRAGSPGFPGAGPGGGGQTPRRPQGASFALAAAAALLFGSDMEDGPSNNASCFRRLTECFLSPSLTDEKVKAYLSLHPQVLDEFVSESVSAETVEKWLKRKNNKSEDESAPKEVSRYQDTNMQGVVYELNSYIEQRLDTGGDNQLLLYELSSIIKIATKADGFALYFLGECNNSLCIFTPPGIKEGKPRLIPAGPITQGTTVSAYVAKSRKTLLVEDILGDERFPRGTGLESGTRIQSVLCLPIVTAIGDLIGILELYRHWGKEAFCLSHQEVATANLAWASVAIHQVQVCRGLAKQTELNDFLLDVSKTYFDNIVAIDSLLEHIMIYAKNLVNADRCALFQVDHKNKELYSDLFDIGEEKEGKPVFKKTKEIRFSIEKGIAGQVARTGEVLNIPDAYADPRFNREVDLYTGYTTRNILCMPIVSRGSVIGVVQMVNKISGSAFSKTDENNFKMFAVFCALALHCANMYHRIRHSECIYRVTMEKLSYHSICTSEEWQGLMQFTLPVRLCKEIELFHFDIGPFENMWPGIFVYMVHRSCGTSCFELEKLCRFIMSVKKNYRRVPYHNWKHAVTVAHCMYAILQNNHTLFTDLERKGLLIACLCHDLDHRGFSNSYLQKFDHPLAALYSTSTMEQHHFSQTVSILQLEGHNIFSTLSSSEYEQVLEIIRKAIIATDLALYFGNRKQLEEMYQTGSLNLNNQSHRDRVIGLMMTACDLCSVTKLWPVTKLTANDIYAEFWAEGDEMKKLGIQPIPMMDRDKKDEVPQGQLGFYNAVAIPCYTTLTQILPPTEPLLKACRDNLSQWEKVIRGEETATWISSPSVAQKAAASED
structure (smiles),measurement,value
Cc1ccc([C@H]2C[C@@H]2COc2cc(NCc3cnn(C)c3)nc(C)n2)nc1,Ki,0.04 nM
